In ChEMBL document CHEMBL1156642, “Discovery of betamethasone 17alpha-carbamates as dissociated glucocorticoid receptor modulators in the rat” (Bioorg Med Chem, 2008):

How the values were obtained:
Format in all cases: functional
[1] = tested on: Rattus norvegicus; experiment: Effect on adrenal weight in Lewis rat with implanted cotton pellets at 2.5 mg/kg, po bid
[2] = tested on: Rattus norvegicus; experiment: Effect on thymus weight in Lewis rat with implanted cotton pellets at 2.5 mg/kg, po bid
[3] = tested on: Rattus norvegicus; experiment: Effect on body weight change in Lewis rat with implanted cotton pellets at 2.5 mg/kg, po bid for 4 days
[4] = tested on: Rattus norvegicus; experiment: Inhibition of granuloma formation in cotton pellet implanted Lewis rat at 6.0 mg/kg, po bid
[5] = tested on: Rattus norvegicus; experiment: Effect on body weight change in Lewis rat with implanted cotton pellets at 2.5 mg/kg, po bid for 7 days
[6] = tested on: Rattus norvegicus; experiment: Inhibition of granuloma formation in cotton pellet implanted Lewis rat at 1.0 mg/kg, po bid
[7] = tested on: Rattus norvegicus; experiment: Effect on body weight change in Lewis rat with implanted cotton pellets at 6.0 mg/kg, po bid for 4 days
[8] = tested on: Rattus norvegicus; experiment: Effect on body weight change in Lewis rat with implanted cotton pellets at 1.0 mg/kg, po bid for 7 days
[9] = tested on: Rattus norvegicus; experiment: Effect on thymus weight in Lewis rat with implanted cotton pellets at 6.0 mg/kg, po bid
[10] = tested on: Rattus norvegicus; experiment: Effect on adrenal weight in Lewis rat with implanted cotton pellets at 6.0 mg/kg, po bid
[11] = tested on: Rattus norvegicus; experiment: Effect on adrenal weight in Lewis rat with implanted cotton pellets at 1.0 mg/kg, po bid
[12] = tested on: Rattus norvegicus; experiment: Effect on thymus weight in Lewis rat with implanted cotton pellets at 1.0 mg/kg, po bid
[13] = species on record: Mus musculus; experiment: Inhibition of LPS-induced TNFalpha production in mouse
[14] = tested on: Rattus norvegicus; experiment: Effect on spleen weight in Lewis rat with implanted cotton pellets at 2.5 mg/kg, po bid
[15] = tested on: Rattus norvegicus; experiment: Effect on spleen weight in Lewis rat with implanted cotton pellets at 6.0 mg/kg, po bid
[16] = tested on: Rattus norvegicus; experiment: Effect on body weight change in Lewis rat with implanted cotton pellets at 6.0 mg/kg, po bid for 7 days
[17] = tested on: Rattus norvegicus; experiment: Effect on spleen weight in Lewis rat with implanted cotton pellets at 1.0 mg/kg, po bid
[18] = tested on: Rattus norvegicus; experiment: Inhibition of granuloma formation in cotton pellet implanted Lewis rat at 2.5 mg/kg, po bid
[19] = tested on: Rattus norvegicus; experiment: Effect on body weight change in Lewis rat with implanted cotton pellets at 1.0 mg/kg, po bid for 4 days

Question: What does the source list for `C[C@]12C=CC(=O)C=C1CC[C@@H]1[C@@H]2[C@@H](O)C[C@@]2(C)[C@H]1CC[C@]2(O)C(=O)CO` [PREDNISOLONE]?
Answer: Activity [1]: 26.9 mg; Activity [2]: 117.8 mg; Activity [3]: -1 g; inhibition in vivo at 6 mg/kg [4]: 56.2%; Activity [5]: -0.4 g; inhibition in vivo at 1 mg/kg [6]: 37.6%; Activity [7]: -3.6 g; Activity [8]: 3 g; Activity [9]: 104 mg; Activity [10]: 27.9 mg; Activity [11]: 38.7 mg; Activity [12]: 219.5 mg; ED50 [13]: 0.5 mg/kg; Activity [14]: 266.8 mg; Activity [15]: 260 mg; Activity [16]: -4.1 g; Activity [17]: 334.7 mg; inhibition in vivo at 2.5 mg/kg [18]: 49.3%; Activity [19]: 1.5 g
